Here are results for five compounds from patent US5466688A, “Pyrido[3,4-B]indole derivatives as serotonergic agents” (American Home Products Corporation, priority 1994, dated 1995).

pIC50: −log10 of the molar value.

Experiment [1] concerns the target T1, 5-HT1A serotonin receptor (Rattus norvegicus, UniProt P19327).
T1 construct: following the procedure of Hall et al., J. Neurochem; 44 1685 (1985); from tissue
T1 sequence (P19327 1-422): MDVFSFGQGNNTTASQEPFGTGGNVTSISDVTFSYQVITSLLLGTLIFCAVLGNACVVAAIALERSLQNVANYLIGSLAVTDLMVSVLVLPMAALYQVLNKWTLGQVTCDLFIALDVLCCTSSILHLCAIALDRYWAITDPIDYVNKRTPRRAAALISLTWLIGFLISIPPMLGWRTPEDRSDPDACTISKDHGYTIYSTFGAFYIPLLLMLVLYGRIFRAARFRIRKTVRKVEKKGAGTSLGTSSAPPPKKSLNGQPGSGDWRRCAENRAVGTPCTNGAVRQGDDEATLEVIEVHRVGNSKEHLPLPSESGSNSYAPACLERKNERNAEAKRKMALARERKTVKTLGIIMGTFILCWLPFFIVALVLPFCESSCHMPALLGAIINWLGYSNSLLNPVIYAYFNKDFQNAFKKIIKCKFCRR
The experiment can be described thus: 5-HT1A receptor binding: displacement of [3H] 8-OHDPAT. As to conditions: procedure of Hall et al. How it is done: High affinity for the serotonin 5-HT1A receptor for the compounds of this invention was established by testing them in accordance with the standard pharmacological test procedure in which the compound's ability to displace [^3 H] 8-OHDPAT (dipropylaminotetralin) from the 5-HT1A serotonin receptor was determined following the procedure of Hall et al., J. Neurochem. 44 1685 (1985). […] The anxiolytic activity of buspirone is believed to be, at least partially, due to its 5-HT1A receptor affinity [VanderMaelen et al., Eur. J. Pharmacol. 1986, 129 (123-130)].
(In a radioligand displacement assay an active substance lowers the binding of a labelled ligand.)

Experiment [2] addresses T1, 5-HT1A serotonin receptor. The note with it: buspirone, literature (VanderMaelen et al. 1986); cited from earlier work.

A word on the pIC50: it is the negative decadic logarithm of the IC50, by convention in mol/L. Low values mean a high IC50, high ones a low IC50. In the case of `CN1c2ccccc2[C@@H]2CCN(CCC(C(=O)N3CCCCCC3)c3ccccc3)C[C@H]21` (relative stereo) [Example 3, 1-Azepan-1-yl-4-((trans)-9-methyl-1,3,4,4a,9,9a-hexahydro-2H-pyrido[3,4-b]indol-2-yl)-2-phenyl-butan-1-one], the pIC50 in experiment [1] is 7.43.

Regarding `O=C(C(CCN1CC[C@H]2c3ccccc3N[C@H]2C1)c1ccccc1)N1CCCCCC1` (relative stereo) [Example 4, 1-Azepan-1-yl-4-((cis)-1,3,4,4a,9,9a-hexahydro-2H-pyrido[3,4-b]indol-2-yl)-2-phenyl-butan-1-one], in experiment [1], the pIC50 was 7.17. As for `O=C(C(CCN1CCc2c([nH]c3ccccc23)C1)c1ccccc1)N1CCCCCC1` (centres unmarked) [Example 1, 1-Azepan-1-yl-2-phenyl-4-(1,3,4,9-tetrahydro-2H-pyrido[3.4-b]indol-2-yl]-butan-1-one], the pIC50 in experiment [1] was 7.51.

In the case of `Cn1c2c(c3ccccc31)CCN(CCC(C(=O)N1CCCCCC1)c1ccccc1)C2` (centres unmarked) [Example 2, 1-Azepan-1-yl-4-(9-methyl-1,3,4,9-tetrahydro-2H-pyrido[3.4-b]-indol-2-yl]-2-phenyl-butan-1-one], in experiment [1], the pIC50 is 7.48.

Turning to `O=C1CC2(CCCC2)CC(=O)N1CCCCN1CCN(c2ncccn2)CC1` [buspirone], in experiment [2], the “affinity for the 5-HT1A serotonin receptor (in words)” value is “potent affinity”.
